# According to patent US20040219228A1, “Animal model for inflammatory bowel disease” (Pfizer Inc, priority 2003, published 2004):
# Legend:
# Type in all cases: in vivo, mouse
# mdr1a^−/− mice = experiment: mdr1a−/− mice given chlorinated drinking water as IBD model: clinical signs, body weight, colon and caecum weights; settings: for Body weight (Mean ± s.e.m.): end of study; for Growth rate (Mean ± s.e.m.): over study period
# From the text: Forty male mdr1a^−/− mice (strain FVB.129P2-Pgy3^tm1 N7) and six control male mice (mdr1a^+/+) from the same genetic background (FVB; strain FVB/NTac) (6-8 weeks old) were obtained from Taconic Farms (U.S.A). Mice were individually housed in solid bottom cages containing autoclaved Bee Kay bedding from Bantin & Kingman (U.K.) with the addition of Envirodri, a nesting material made from virgin paper, free from deodorising chemicals, to provide enrichment. Mice were fed on RAT & Mouse No 1 maintenance diet (RMI (E) SQC) (Special Diet services, Witham, Essex, U.K.) on arrival at Pfizer. For this study we used bottled water and Klortabs (5 ppm) (Arrowmight Biosciences, U.K.) to eliminate the possibility of water borne spreading of bacterial pathogens and to provide a water supply with constant levels of chlorine. Water was changed twice a week. This study was carried out in accordance with UK legislation and approved by Pfizer's internal ethical review process.
# Prior to commencing the study, all mice (40 mdr1a^−/− and 6 mdr1a^+/+) acclimatised for 14 days. […] A scoring system was devised with different weightings for different clinical signs (Table 1). The intention was that the score should reflect the severity of the colitis.
# (§1) Following the acclimatisation period, mdr1a^−/− mice with mild and moderate disease scores (mild disease (0-3) was defined by absence of gain or mild body weight loss (<0.5 g) and no other symptoms, whereas moderate disease (4-10) was defined by similar symptoms as a previous group but with soft faeces or greater loss in body weight (>20%) were randomised into 4 groups and dosed subcutaneously (s.c.) with vehicle (water, n=8) or dexamethasone (0.05 mg/kg, n=9; 0.3 mg/kg, n=8 or 2 mg/kg, n=8) daily for 7 days. The 6 mdr1a^+/+ mice received vehicle (water). During the study period, one mouse from the group treated with 0.3 mg/kg dexamethasone was found dead and two were euthanised (one from the vehicle-treated group and one from the group treated with 0.05 mg/kg dexamethasone). At the end of the study all mice were euthanased. The colon and caecum from each mouse was removed and weighed. Each colon was then divided longitudinally so that one section could be processed for histological analysis and the other for cytokine measurement (see below).
# (§2) Data were analysed for the 29 mdr1a^−/− and 6 mdr1a^+/+ mice, which completed the study. Differences between vehicle treated mdr1a^−/− and mdr1a^+/+ mice were analysed using a two sample t-test (assuming equal variance for IFN-γ, growth rate in the acclimatisation period and final weight, and unequal variance for IL-8, colon weight, caecum weight, colon to body weight ratio, caecum to body weight ratio and growth rate during the study period). The effects of dexamethasone treatment were analysed using analysis of variance (ANOVA) allowing for culling group.
# IL-8 = IL-8 levels in homogenised colon samples (ELISA); settings: mdr1a−/− mice
# Procedure: as §1
# (§3) Each individual colon sample was homogenised three times for 30 seconds at 4° C. in 3ml of ice-cold Krebs' solution (Sigma Chemical Co. U.K.). Samples were centrifuged for 15 min at 35,000 g (4° C.) and supernatants were removed. IL-8 and IFN-γ levels were then measured by ELISA kits (R&D systems, U.K.). The detection limits of these kits were 31.2-2000 pg/ml. Protein levels was assayed in supernatants using the method described by Bradford (Bradford, M. (1976) Analyt. Biochem. 72, 248-254), utilising Bradford Reagent (Sigma).
# as §2
# IFN-γ = IFN-γ levels in homogenised colon samples (ELISA); settings: mdr1a−/− mice
# Procedure: as §1, §3, §2
# [1] = test system: colon/rectum of mdr1a^−/− mice; experiment: Histological grading of colitis severity (score 0-4); settings: for Colitis severity score graded histologically (Mean ± s.e.m.): scale 0-4
# Procedure: as §1
# The animals were necropsied. The colon/rectum and caecum were weighed and colon/rectum, caecum, ileum, jejunum, duodenum, stomach, mesenteric nodes, thymus, kidney, spleen were sampled and fixed in 10% buffered formalin solution. The colon/rectum and ileum were prepared in a “Swiss roll” technique (Moolenbeek, C. & Ruitenberg E. J. (1981) Lab Anim 15(1):57-9) to evaluate their whole longitudinal section one slide. Tissues were processed routinely in an automatic tissue processor, embedded in paraffin, sectioned at 4-6 μm, stained with hematoxylin and eosin (HE), and examined histologically. The colitis was graded from 0 (no significant findings) to 4 (severe proliferative and ulcerative inflammation) according to the extent of the findings and severity of mucosal changes (Table 2) by a blinded observer. In addition, the mucosal height of the whole colon/rectum were assessed about every 100 μm with a standard interactive microcomputer-assisted image analysis system.
# Colitis severity score is an ordered categorical measure graded on a scale of 0-4. This type of data is generally analysed using a proportional odds model, however due to the small sample size this was not appropriate and ANOVA was used. This makes the assumption of having normally distributed data, which although we had categorical data, seemed to hold approximately true. All analysis was carried out using Genstat 5 Release 4.2 for Windows.
# [2] = 0.05 mg/kg s.c. daily for 7 days
# [3] = 0.3 mg/kg s.c. daily for 7 days
# [4] = lower doses (0.05 and 0.3 mg/kg s.c.)
smiles,measurement,setting,value
C[C@@H]1C[C@H]2[C@@H]3CCC4=CC(=O)C=C[C@]4(C)[C@@]3(F)[C@@H](O)C[C@]2(C)[C@@]1(O)C(=O)CO [dexamethasone],Clinical score (Mean ± s.e.m.),mdr1a^−/− mice; [2],56 ± 8.9
same,Body weight (Mean ± s.e.m.),mdr1a^−/− mice; [2],22.2 ± 0.77 g
same,Growth rate (Mean ± s.e.m.),mdr1a^−/− mice; [2],-0.427 ± 0.099 g/day
same,Clinical score (Mean ± s.e.m.),mdr1a^−/− mice; [3],37 ± 8.9
same,Body weight (Mean ± s.e.m.),mdr1a^−/− mice; [3],22.6 ± 0.77 g
same,Growth rate (Mean ± s.e.m.),mdr1a^−/− mice; [3],-0.260 ± 0.099 g/day
same,Clinical score (Mean ± s.e.m.),mdr1a^−/− mice; 2 mg/kg s.c. daily for 7 days,32 ± 8.3
same,Body weight (Mean ± s.e.m.),mdr1a^−/− mice; 2 mg/kg s.c. daily for 7 days,22.7 ± 0.72 g
same,Growth rate (Mean ± s.e.m.),mdr1a^−/− mice; 2 mg/kg s.c. daily for 7 days,-0.271 ± 0.093 g/day
same,Colon to body weight ratio,"mdr1a^−/− mice; 2 mg/kg s.c. daily for 7 days, vehicle 3.0±0.28, P=0.017",2.1±0.26
same,Absolute colon weight,"mdr1a^−/− mice; 2 mg/kg s.c. daily for 7 days, vehicle 691±52 mg, P<0.01",456 ± 48 mg
same,Effect on overall clinical scores of colitis,mdr1a^−/− mice; 0.05-2 mg/kg s.c.,no effect
same,Effect on final body weight,mdr1a^−/− mice; any of the doses used,no significant effect
same,Effect on growth rate,mdr1a^−/− mice; any of the doses used,no significant effect
same,Effect on absolute colon weight vs. vehicle,mdr1a^−/− mice; [4],no significant effect
same,Effect on colon to body weight ratio vs. vehicle,mdr1a^−/− mice; [4],no significant effect
same,IL-8 level in homogenised colon (Mean ± s.e.m),IL-8; [2],317 ± 65.7 pg/mg protein
same,IL-8 level in homogenised colon (Mean ± s.e.m),IL-8; [3],264 ± 65.7 pg/mg protein
same,IL-8 level in homogenised colon (Mean ± s.e.m),IL-8; 2 mg/kg s.c. daily for 7 days,220 ± 61.5 pg/mg protein
same,Effect on IL-8 levels in homogenised colons,IL-8; any of the doses used,no effect
same,IFN-γ level in homogenised colon (Mean ± s.e.m),IFN-γ; [2],177 ± 32.6 pg/mg protein
same,IFN-γ level in homogenised colon (Mean ± s.e.m),IFN-γ; [3],169 ± 32.6 pg/mg protein
same,IFN-γ level in homogenised colon (Mean ± s.e.m),IFN-γ; 2 mg/kg s.c. daily for 7 days,100 ± 30.5 pg/mg protein
same,Effect on IFN-γ levels in homogenised colons,IFN-γ; any of the doses used,no effect
same,Colitis severity score graded histologically (Mean ± s.e.m.),[1]; [2],4.0 ± 0.42
same,"Colitis severity score, difference from vehicle","[1]; 0.05 mg/kg s.c., p >0.05",0.3
same,Colitis severity score graded histologically (Mean ± s.e.m.),[1]; [3],3.1 ± 0.42
same,"Colitis severity score, difference from vehicle","[1]; 0.3 mg/kg s.c., p >0.05",−0.6
same,Colitis severity score graded histologically (Mean ± s.e.m.),[1]; 2 mg/kg s.c. daily for 7 days,2.4 ± 0.39
same,"Colitis severity score, difference from vehicle","[1]; 2 mg/kg s.c., p <0.05",−1.3
